Legend:
GC-B [1] = biological target: T1, GC-B (Rattus norvegicus, UniProt P16067); test: Agonist-induced GC-B internalization by confocal immunofluorescence in GH3 cells; type: cell-based; conditions: 100 nM CNP, 0-4 h; n = 3; Fig. 5a-c
T1 construct: rapid homologous desensitization of endogenous GC-B receptors in GH3 cells; endogenous in cells; host or cells: GH3 rat somatolactotrope cells
T1 sequence (P16067 17-1047): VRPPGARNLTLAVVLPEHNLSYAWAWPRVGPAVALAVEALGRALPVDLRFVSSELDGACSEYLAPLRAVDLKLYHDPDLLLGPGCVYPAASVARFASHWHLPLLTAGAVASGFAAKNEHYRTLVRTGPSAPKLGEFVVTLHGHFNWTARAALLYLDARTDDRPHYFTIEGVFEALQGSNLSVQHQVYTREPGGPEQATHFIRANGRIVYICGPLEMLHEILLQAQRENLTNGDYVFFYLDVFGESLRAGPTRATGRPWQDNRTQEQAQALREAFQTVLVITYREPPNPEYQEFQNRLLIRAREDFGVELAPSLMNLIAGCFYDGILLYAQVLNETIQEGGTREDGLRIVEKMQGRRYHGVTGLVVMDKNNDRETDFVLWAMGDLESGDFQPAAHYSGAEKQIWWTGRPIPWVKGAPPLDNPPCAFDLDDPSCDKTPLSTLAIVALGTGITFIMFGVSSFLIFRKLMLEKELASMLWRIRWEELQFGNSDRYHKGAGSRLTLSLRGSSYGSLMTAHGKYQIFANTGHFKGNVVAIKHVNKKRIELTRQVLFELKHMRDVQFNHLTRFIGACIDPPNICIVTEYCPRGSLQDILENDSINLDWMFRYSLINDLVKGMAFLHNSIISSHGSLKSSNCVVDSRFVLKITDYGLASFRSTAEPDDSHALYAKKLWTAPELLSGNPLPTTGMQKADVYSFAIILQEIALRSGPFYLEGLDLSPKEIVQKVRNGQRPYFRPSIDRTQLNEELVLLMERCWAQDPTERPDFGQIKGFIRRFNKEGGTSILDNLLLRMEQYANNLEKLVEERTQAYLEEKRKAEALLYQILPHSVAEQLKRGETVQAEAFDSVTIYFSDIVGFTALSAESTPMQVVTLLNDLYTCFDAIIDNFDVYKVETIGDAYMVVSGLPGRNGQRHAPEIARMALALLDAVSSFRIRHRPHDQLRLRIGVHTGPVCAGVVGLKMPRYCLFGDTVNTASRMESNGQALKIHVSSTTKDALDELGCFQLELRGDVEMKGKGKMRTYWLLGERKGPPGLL
Method: GH3 cells were mounted on poly-L-lysine-coated coverslips and treated with either 0 or 100nM ANP or CNP in PSS during the indicated time points. Following treatment, cells were fixed with 4 % (w/v) formaldehyde for 10 min at room temperature and permeabilized with buffer (1 % [v/v] Tween-20 in 50 ml phosphate-buffered saline [PBS]) before incubation for 10 min at room temperature. Cells were then blocked with […] sodium azide dissolved in 92 % PBS, 3 % FCS and 5 % Tween-20 (v/v) for 20 min at room temperature, washed, then exposed to 1:200 diluted primary antibody solution (GC-A or GC-B, plus 0.1 % FCS and 0.1 % Tween-20) for 16 h at 4 °C. […] Following three PBS washes and a final 5-min PBS immersion at room temperature, the slides were mounted in Vectorshield (Vector Laboratories, Peterborough, UK) on standard VWR (VWR International, Leicestershire, UK) slides ready for analysis. A Leica SPS confocal scanning laser microscope was used to capture the staining, which was analyzed with Leica SPS software (Leica Microsystems, Milton Keynes, UK). […]
Fig. 5 Lack of ligand-dependent internalization of GC-B or GC-A in GH3 somatolactotrope cells. […] GC-A and GC-B immunoreactivity was detected by using Alexa488-conjugated secondary antibodies (green), whereas Alexa635-conjugated phalloidin was used to detect the actin cytoskeleton (red). […]

GC-B [2] = biological target: T1, GC-B; test: Effect of protein phosphatase inhibitors on rapid homologous desensitization of CNP-stimulated cGMP accumulation in GH3 cells; type: cell-based; conditions: 100 nM CNP, 1 mM IBMX; 30 min pre-treatment with 100 nM OA, 1 nM cypermethrin or 1 mM Na3VO4; control = CNP alone; n = 3
Method: Fig. 2 Rapid homologous desensitization of CNP-dependent but not ANP-dependent cGMP accumulation in GH3 cells. Cells were treated with PSS containing either (a) 100 nM CNP or (b) 100 nM ANP for 0–15 min in the presence of 1 mM IBMX.
Similar short time-courses were performed, except that some cells were pre-treated with 100 nM okadaic acid (OA, a PP2A inhibitor), 1 nM cypermethrin (a PP2B inhibitor), or 1 mM sodium orthovanadate (Na3VO4, a protein tyrosine phosphatase inhibitor) for 30 min prior to CNP treatment (Fig. 2c).

What does the source list for CC[C@H](C)[C@@H]1NC(=O)[C@H](CCCNC(=N)N)NC(=O)[C@H](CC(=O)O)NC(=O)[C@H](CC(C)C)NC(=O)[C@H](CCCCN)NC(=O)[C@H](CC(C)C)NC(=O)CNC(=O)[C@H](Cc2ccccc2)NC(=O)[C@@H](NC(=O)CNC(=O)[C@H](CCCCN)NC(=O)[C@H](CO)NC(=O)[C@H](CC(C)C)NC(=O)CN)CSSC[C@@H](C(=O)O)NC(=O)CNC(=O)[C@H](CC(C)C)NC(=O)CNC(=O)[C@H](CO)NC(=O)[C@H](CCSC)NC(=O)[C@H](CO)NC(=O)CNC1=O [CNP, C-type natriuretic peptide]?
GC-B internalization (GC-B [1]): did not demonstrate any observable GC-B or GC-A internalization; rate of cGMP accumulation from 5 to 15 min (desensitization) (GC-B [2]): underwent desensitization as shown by the failure to maintain the initial rate of cGMP accumulation

Source: paper PMC3921447, “Homologous and heterologous desensitization of guanylyl cyclase-B signaling in GH3 somatolactotropes” (Cell and Tissue Research, 2013)
